Test results from publication PMC6269778, “Efficient Synthesis of 2-Amino-6-Arylbenzothiazoles via Pd(0) Suzuki Cross Coupling Reactions: Potent Urease Enzyme Inhibition and Nitric Oxide Scavenging Activities of the Products” (Molecules, 2013).
In brackets after ≈: the same amount, converted by molar mass. Several values for one entry are separate records, joined by “and”; a condition that tells them apart may be missing. Equal values may be shown once.

Tests used:
[1] = NO scavenging activity (sodium nitroprusside / Griess reagent); conditions: for Nitric Oxide Percentage Scavenging Activity at 25 µg/mL / Nitric Oxide Percentage Scavenging Activity at 50 µg/mL / Nitric Oxide Percentage Scavenging Activity at 100 µg/mL: mean ± SD of three parallel measurements; for IC50 (nitric oxide scavenging): NO scavenging
urease = urease (Canavalia ensiformis, UniProt P07374); test: biochemical; type: biochemical; conditions: for inhibition at 25 µg/mL: read-out: Percentage inhibition at 25 µg/mL; for inhibition at 50 µg/mL: read-out: Percentage inhibition at 50 µg/mL
urease, sequence (P07374 whole entry, looked up): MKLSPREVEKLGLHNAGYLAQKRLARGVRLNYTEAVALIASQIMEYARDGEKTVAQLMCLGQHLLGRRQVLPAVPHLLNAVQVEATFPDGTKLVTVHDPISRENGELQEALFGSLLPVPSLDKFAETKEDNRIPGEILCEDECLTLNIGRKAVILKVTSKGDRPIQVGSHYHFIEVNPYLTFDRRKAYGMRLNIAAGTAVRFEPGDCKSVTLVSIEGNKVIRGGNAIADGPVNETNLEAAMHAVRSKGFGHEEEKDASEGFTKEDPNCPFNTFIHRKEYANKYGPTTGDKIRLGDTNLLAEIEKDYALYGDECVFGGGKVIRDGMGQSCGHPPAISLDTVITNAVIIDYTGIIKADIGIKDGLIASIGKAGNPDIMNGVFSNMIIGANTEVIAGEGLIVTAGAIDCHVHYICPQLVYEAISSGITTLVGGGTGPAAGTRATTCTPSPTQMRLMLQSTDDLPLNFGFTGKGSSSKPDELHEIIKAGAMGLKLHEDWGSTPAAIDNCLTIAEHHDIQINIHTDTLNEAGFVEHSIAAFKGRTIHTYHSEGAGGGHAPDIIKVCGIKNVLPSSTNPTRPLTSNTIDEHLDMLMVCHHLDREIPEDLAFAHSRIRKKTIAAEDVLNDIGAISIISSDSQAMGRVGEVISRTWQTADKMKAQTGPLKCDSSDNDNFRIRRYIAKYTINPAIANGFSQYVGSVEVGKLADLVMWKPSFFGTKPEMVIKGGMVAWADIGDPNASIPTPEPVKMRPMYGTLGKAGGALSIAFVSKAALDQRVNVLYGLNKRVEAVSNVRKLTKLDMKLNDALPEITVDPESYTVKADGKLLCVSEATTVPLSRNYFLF
Method: The newly synthesized compounds 3a–e were examined for their urease inhibition activities in vitro at 25 and 50 μg/mL concentrations. […] Thus, enzyme stops catalyzing hydrolysis and the activity of the enzyme is inhibited.
The urease inhibitory activity of the synthesized compounds 2, 3a–e, 4 was determined as follows: phosphate buffer (pH 7, 200 µL) containing 1 unit of enzyme was mixed with phosphate buffer (230 µL) and of a particular stock solution (20 µL, thiourea or the test compound). The reaction mixture was incubated at 25 °C for 5 min. After the incubation period urea stock solution (400 µL, 20 mM) was added. Calibration mixture was prepared with no urea solution. All test tubes were further incubated at 40 °C for the action of urease for 10 min. This was followed by the addition of phenol hypochlorite reagent (1150 µL). Tubes were again incubated at 56 °C for 25 min. […] The IC50 values were determined using the EZ-fit kinetic data base.

Row | SMILES | Nitric Oxide Percentage Scavenging Activity at 25 µg/mL [1] [%] | Nitric Oxide Percentage Scavenging Activity at 50 µg/mL [1] | Nitric Oxide Percentage Scavenging Activity at 100 µg/mL [1] | IC50 (urease) [µM] | inhibition at 25 µg/mL (urease) [%] | inhibition at 50 µg/mL (urease) [%] | IC50 (nitric oxide scavenging) [1] [µg/mL] | melting point [°C] | IC50 (urease inhibition) (urease; urease, EZ-fit) [µg/mL]
1 | O=C1O[C@H]([C@@H](O)CO)C(O)=C1O [Ascorbic acid, reference compound] | 40.5 ± 0.01 | 70.50 ± 0.91% | 99.5 ± 0.91% | – | – | – | – | – | –
2 | Nc1nc2ccc(Br)cc2s1 [Compound 2, 6-Bromobenzo[d]thiazole-2-amine] | 20 ± 0.004 | 48 ± 0.0007% | 90 ± 0.007% and 90 ± 0.0007% | 124 | 43 ± 0.0034 | 95 ± 0.005 | 57.8 (≈ 252 µM) | – | –
3 | Cc1ccc(-c2ccc3nc(N)sc3c2)cc1 [Compound 3a, 6-p-Tolylbenzo[d]thiazole-2-amine] | 24 ± 0.003 | 67 ± 0.009% and 56 ± 0.001% | 95 ± 0.001% | 113 | 46 ± 0.005 | 90.49 ± 0.002 | 38.19 (≈ 159 µM) | 184 to 186 | –
4 | Nc1nc2ccc(-c3ccc(Cl)cc3)cc2s1 [Compound 3b, 6-(4-Chlorophenyl)benzo[d]thiazole-2-amine] | 17 ± 0.006 | 34 ± 0.005% | 66 ± 0.005% | 117 | 39 ± 0.0012 | 88.19 ± 0.007 | 75 (≈ 288 µM) | 194 to 196 | –
5 | COc1ccc(-c2ccc3nc(N)sc3c2)cc1 [Compound 3c, 6-(4-Methoxyphenyl)benzo[d]thiazole-2-amine] | 31 ± 0.022 | 67 ± 0.002% | – | 111 | 44 ± 0.005 | 86.24 ± 0.001 | 38.19 (≈ 149 µM) | 165 to 167 | –
6 | Nc1nc2ccc(-c3cc(C(F)(F)F)cc(C(F)(F)F)c3)cc2s1 [Compound 3d, 6-(3,5-bis(Triflouromethyl)phenyl)benzo[d]thiazole-2-amine] | 10 ± 0.01 | 23 ± 0.009% | 63 ± 0.009% | 79.7 | 43 ± 0.007 | 88.6 ± 0.002 | 83.75 (≈ 231 µM) | 180 to 182 | –
7 | Nc1nc2ccc(-c3ccccc3)cc2s1 [Compound 3e, 6-Phenylbenzo[d]thiazole-2-amine] | 9 ± 0.007 | 22 ± 0.001% | 52 ± 0.001% | 116 | 48 ± 0.005 | 85 ± 0.002 | 96.66 (≈ 427 µM) | – | –
8 | CC(=O)Nc1nc2ccc(Br)cc2s1 [Compound 4, N-(6-Bromobenzo[d]thiazol-2-yl)acetamide] | – | – | – | 112 | 39 ± 0.001 | 89 ± 0.009 | – | – | –
9 | NC(N)=S [Thiourea, reference compound] | – | – | – | – | – | – | – | – | 34.65 (≈ 455 µM)
